Reference: patent US20260042770A1, “NOVEL SULFONES AND THEIR USE AS NEUROPROTECTIVE AND/OR NEURORESTORATIVE AGENTS” (GENECODE, priority 2022, published 2026)

The molecules below were run against T1, GFRα1-RET (Homo sapiens, UniProt P56159) (assay: Elk1 luciferase reporter-gene assay in cells expressing GFRα1-RET). Conditions: agonist/activator activity of Elk1 signaling; MG87 murine fibroblast stably transfected with PathDetect Elk-1, GFRα1 and RET; 6 concentrations, duplicate, two independent runs.
T1 construct: expressed in transfected cells; host or cells: MG87 murine fibroblasts stably transfected with PathDetect Elk-1, GFRα1 and RET
T1 sequence (P56159 25-429 limits assumed): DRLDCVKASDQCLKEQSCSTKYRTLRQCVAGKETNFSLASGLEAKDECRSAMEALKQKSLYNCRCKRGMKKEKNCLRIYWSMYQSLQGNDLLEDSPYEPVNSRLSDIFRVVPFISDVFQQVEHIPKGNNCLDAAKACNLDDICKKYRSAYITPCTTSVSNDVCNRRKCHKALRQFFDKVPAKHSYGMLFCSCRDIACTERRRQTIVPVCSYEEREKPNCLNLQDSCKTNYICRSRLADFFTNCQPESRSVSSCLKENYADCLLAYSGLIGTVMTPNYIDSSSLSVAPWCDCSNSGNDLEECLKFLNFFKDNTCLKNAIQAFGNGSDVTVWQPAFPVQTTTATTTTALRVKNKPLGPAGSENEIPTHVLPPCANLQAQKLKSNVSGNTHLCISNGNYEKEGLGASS
Type: cell-based
Procedure: For EC50 determination, a dose-response test was performed using 6 concentrations of each tested compound. Dose-response curves were fitted using the sigmoidal dose-response (variable slope) analysis in GraphPad Prism program (Graph Pad Inc) and EC50 of agonist/activator activity was calculated. Dose-response experiments were all performed in duplicate, two times independently.
With `COc1ccc(S(=O)(=O)C2CCCC2)cc1N1CCN(C(=O)c2ccc(F)cc2Cl)CC1C` (racemic) [Cpd 006, (2-chloro-4-fluoro-phenyl)-[rac-(3S)-4-(5-cyclopentylsulfonyl-2-methoxy-phenyl)-3-methyl-piperazin-1-yl]methanone] the EC50 was 1 to 10 µM.
`CCC(CC)S(=O)(=O)c1ccc(OC)c(N2CCN(C(=O)c3ccc(F)cc3Cl)CC2C)c1` (racemic) [Cpd 007, (2-chloro-4-fluoro-phenyl)-[rac-(3S)-4-[5-(1-ethylpropylsulfonyl)-2-methoxy-phenyl]-3-methyl-piperazin-1-yl]methanone] showed an EC50 of 1 to 10 µM.
`CCCC(C)S(=O)(=O)c1ccc(OC)c(N2CCN(C(=O)c3ccc(F)cc3Cl)CC2C)c1` (racemic) [Cpd 016] showed an EC50 of 1 to 10 µM.
Molecule `CCC(C)S(=O)(=O)c1ccc(OC)c(N2C3CCC2CN(C(=O)c2ccc(F)cc2Cl)C3)c1` (racemic) [Cpd 022, (2-chloro-4-fluoro-phenyl)-[(1S,5R)-8-[2-methoxy-5-[(1SR)-1-methylpropyl]sulfonyl-phenyl]-3,8-diazabicyclo[3.2.1]octan-3-yl]methanone] has an EC50 of 1 to 10 µM.
For `COc1ccc(S(=O)(=O)C(C)CCc2ccccc2)cc1N1C2CCC1CN(C(=O)c1ccc(F)cc1Cl)C2` (racemic) [Cpd 023, (2-chloro-4-fluoro-phenyl)-[(1S,5R)-8-[2-methoxy-5-[(1SR)-1-methyl-3-phenyl-propyl]sulfonyl-phenyl]-3,8-diazabicyclo[3.2.1]octan-3-yl]methanone], the EC50 was 1 to 10 µM.
`COc1ccc(S(=O)(=O)C(C)CCCc2ccccc2)cc1N1C2CCC1CN(C(=O)c1ccc(F)cc1Cl)C2` (racemic) [Cpd 024, (2-chloro-4-fluoro-phenyl)-[(1S,5R)-8-[2-methoxy-5-[(1SR)-1-methyl-4-phenyl-butyl]sulfonyl-phenyl]-3,8-diazabicyclo[3.2.1]octan-3-yl]methanone] showed an EC50 of 1 to 10 µM.
Molecule `CCC(CCc1ccccc1)S(=O)(=O)c1ccc(OC)c(N2C3CCC2CN(C(=O)c2ccc(F)cc2Cl)C3)c1` (racemic) [Cpd 025, (2-chloro-4-fluoro-phenyl)-[(1S,5R)-8-[5-[(1SR)-1-ethyl-3-phenyl-propyl]sulfonyl-2-methoxy-phenyl]-3,8-diazabicyclo[3.2.1]octan-3-yl]methanone] has an EC50 of 1 to 10 µM.
Work on `CCC(CCCc1ccccc1)S(=O)(=O)c1ccc(OC)c(N2C3CCC2CN(C(=O)c2ccc(F)cc2Cl)C3)c1` (racemic) [Cpd 026, (2-chloro-4-fluoro-phenyl)-[(1S,5R)-8-[5-[(1SR)-1-ethyl-4-phenyl-butyl]sulfonyl-2-methoxy-phenyl]-3,8-diazabicyclo[3.2.1]octan-3-yl]methanone] yielded an EC50 of 1 to 10 µM.
Molecule `CCC(CC)S(=O)(=O)c1ccc(OC)c(N2CCN(C(=O)c3ccc(F)cc3C(F)(F)F)CC2)c1` [Cpd 001, [4-[5-(1-ethylpropylsulfonyl)-2-methoxy-phenyl]piperazin-1-yl]-[4-fluoro-2-(trifluoromethyl)phenyl]methanone] has an EC50 of 10 to 50 µM.
Work on `COc1ccc(S(=O)(=O)C2CCCC2)cc1N1CCN(C(=O)c2ccc(F)cc2C(F)(F)F)CC1` [Cpd 002, [4-(5-cyclopentylsulfonyl-2-methoxy-phenyl)piperazin-1-yl]-[4-fluoro-2-(trifluoromethyl)phenyl]methanone] yielded an EC50 of 10 to 50 µM.
In the case of `COc1ccc(S(=O)(=O)C2CCCCC2)cc1N1CCN(C(=O)c2ccc(F)cc2C(F)(F)F)CC1` [Cpd 003, [4-(5-cyclohexylsulfonyl-2-methoxy-phenyl)piperazin-1-yl]-[4-fluoro-2-(trifluoromethyl)phenyl]methanone], the EC50 is reported as 10 to 50 µM.
`COc1ccc(S(=O)(=O)C2CCCC2)cc1N1[C@@H]2CC[C@H]1CN(C(=O)c1ccc(F)cc1Cl)C2` [Cpd 004, (2-chloro-4-fluoro-phenyl)-[(1S,5R)-8-(5-cyclopentylsulfonyl-2-methoxy-phenyl)-3,8-diazabicyclo[3.2.1]octan-3-yl]methanone] gave an EC50 of 1 to 10 µM.
`CCC(CC)S(=O)(=O)c1ccc(OC)c(N2[C@@H]3CC[C@H]2CN(C(=O)c2ccc(F)cc2Cl)C3)c1` [Cpd 005, (2-chloro-4-fluoro-phenyl)-[(1S,5R)-8-[5-(1-ethylpropylsulfonyl)-2-methoxy-phenyl]-3,8-diazabicyclo[3.2.1]octan-3-yl]methanone] showed an EC50 of 1 to 10 µM.
With `COc1ccc(S(=O)(=O)C(C)C)cc1N1CCN(C(=O)c2ccc(F)cc2Cl)CC1` [Cpd 008, (2-chloro-4-fluoro-phenyl)-[4-(5-isopropylsulfonyl-2-methoxy-phenyl)piperazin-1-yl]methanone] the EC50 was 10 to 50 µM.
With `COc1ccc(S(=O)(=O)CC2CC2)cc1N1CCN(C(=O)c2ccc(F)cc2Cl)CC1` [Cpd 009, (2-chloro-4-fluoro-phenyl)-[4-[5-(cyclopropylmethylsulfonyl)-2-methoxy-phenyl]piperazin-1-yl]methanone] the EC50 was 1 to 10 µM.
With `COc1ccc(S(=O)(=O)C2CCC2)cc1N1[C@@H]2CC[C@H]1CN(C(=O)c1ccc(F)cc1Cl)C2` [Cpd 010, (2-chloro-4-fluoro-phenyl)-[(1S,5R)-8-(5-cyclobutylsulfonyl-2-methoxy-phenyl)-3,8-diazabicyclo[3.2.1]octan-3-yl]methanone] the EC50 was 1 to 10 µM.
For `COc1ccc(S(=O)(=O)C2COC2)cc1N1CCN(C(=O)c2ccc(F)cc2Cl)CC1` [Cpd 011, (2-chloro-4-fluoro-phenyl)-[4-[2-methoxy-5-(oxetan-3-ylsulfonyl)phenyl]piperazin-1-yl]methanone], the EC50 was 10 to 50 µM.
With `COc1ccc(S(=O)(=O)CC2CCC2)cc1N1CCN(C(=O)c2ccc(F)cc2Cl)CC1` [Cpd 012, (2-chloro-4-fluoro-phenyl)-[4-[5-(cyclobutylmethylsulfonyl)-2-methoxy-phenyl]piperazin-1-yl]methanone] the EC50 was 10 to 50 µM.
`COc1ccc(S(=O)(=O)CC2CCCC2)cc1N1CCN(C(=O)c2ccc(F)cc2Cl)CC1` [Cpd 013, (2-chloro-4-fluoro-phenyl)-[4-[5-(cyclopentylmethylsulfonyl)-2-methoxy-phenyl]piperazin-1-yl]methanone] showed an EC50 of 1 to 10 µM.
Molecule `COc1ccc(S(=O)(=O)Cc2ccccc2)cc1N1[C@@H]2CC[C@H]1CN(C(=O)c1ccc(F)cc1Cl)C2` [Cpd 014, [(1S,5R)-8-(5-benzylsulfonyl-2-methoxy-phenyl)-3,8-diazabicyclo[3.2.1]octan-3-yl]-(2-chloro-4-fluoro-phenyl)methanone] has an EC50 of 10 to 50 µM.
Work on `COc1ccc(S(=O)(=O)CC(C)(C)C)cc1N1[C@@H]2CC[C@H]1CN(C(=O)c1ccc(F)cc1Cl)C2` [Cpd 015, (2-chloro-4-fluoro-phenyl)-[(1S,5R)-8-[5-(2,2-dimethylpropylsulfonyl)-2-methoxy-phenyl]-3,8-diazabicyclo[3.2.1]octan-3-yl]methanone] yielded an EC50 of 1 to 10 µM.
For `COc1ccc(S(=O)(=O)CC(C)C)cc1N1CCN(C(=O)c2ccc(F)cc2C(F)(F)F)CC1` [Cpd 018, [4-fluoro-2-(trifluoromethyl)phenyl]-[4-(5-isobutylsulfonyl-2-methoxy-phenyl)piperazin-1-yl]methanone], the EC50 was 10 to 50 µM.
In the case of `COc1ccc(S(=O)(=O)CCC2CCCC2)cc1N1[C@@H]2CC[C@H]1CN(C(=O)c1ccc(F)cc1Cl)C2` [Cpd 019, (2-chloro-4-fluoro-phenyl)-[(1S,5R)-8-[5-(2-cyclopentylethylsulfonyl)-2-methoxy-phenyl]-3,8-diazabicyclo[3.2.1]octan-3-yl]methanone], the EC50 is reported as 1 to 10 µM.
